{"source": "patent US11931404B2", "about": "“Use of ultrarapid acting insulin” (MannKind Corporation, priority 2014, dated 2024)", "key": {"[1]": {"test_system": "subjects with type 2 diabetes", "test": "Meal challenge test, Original Protocol (OP): blood glucose, endogenous glucose production, glucose disappearance", "assay_type": "in vivo, human", "conditions": "45 U insulin-FDKP, 12 U sc lispro, 4 mg EXUBERA, FIG. 6", "experimental": "The insulin-FDKP formulation is administered to the subjects by oral inhalation using a MEDTONE® dry powder inhaler (MannKind Corp.). Methods and results below are described in terms of the Original Protocol (OP), which includes the meal challenge in 18 subjects with three treatments (EXUBERA®, lispro and TI) and Amendment 1 (A1), which includes 12 subjects treated with only TI and lispro. […] The subjects were screened and evaluated before, during and after the experiments and their data analyzed as described below. Subjects were selected based on several key inclusion criteria, including, male and female, having ≥18 and ≤70 years of age with clinical diagnosis of type 2 diabetes mellitus for 12 months. […] Blood glucose concentrations were measured at regular intervals from arterialized venous blood samples. […] EGP was determined by measurement of 6,6-^2H2 glucose applying the modified calculations for the non-steady state ([…], and D. T. Stein. Calculating glucose fluxes during meal tolerance test: a new computational approach. Am.J.Physiol Endocrinol.Metab 293 (2):[…]-[…], 2007). C-peptide concentrations were measured pre- and post-dose to assess endogenous insulin secretion. In addition, glucagon and free fatty acid concentrations were also determined."}, "[2]": {"conditions": "human, in vivo", "experimental": "The insulin-FDKP formulation is administered to the subjects by oral inhalation using a MEDTONE® dry powder inhaler (MannKind Corp.). Following the completion of the meal challenge, the data was analyzed as per the statistical analysis plan. […] The study was amended (A1) and included 12 subjects (10 were reenrolled from the first meal challenge), and only two treatments, which were 10 U lispro and 60 and 90 U TI. The doses were selected based on the relative bioavailability observed following the first meal challenge (OP), where under an assumption of linear kinetics, 10 U lispro and 60 U TI would result in similar exposure. The 90 U dose group was included to assess the effect of the highest dose group of TI studied in Phase 3 trials. Six of the 12 subjects received 60 U TI and the other 6 subjects received 90 U TI. All 12 subjects received 10 U lispro in a crossover fashion. Methods and results below are described in terms of the Original Protocol (OP), which includes the meal challenge in 18 subjects with three treatments (EXUBERA®, lispro and TI) and Amendment 1 (A1), which includes 12 subjects treated with only TI and lispro. […] The subjects were screened and evaluated before, during and after the experiments and their data analyzed as described below. […]"}}, "data": [{"substance": "insulin lispro", "values": [{"measurement": "time at which glucose disappearance rate peaked after dosing", "setting": "[1]", "value": "about 120 minutes"}, {"measurement": "median tmax of insulin concentrations", "setting": "[2]", "value": 1.25, "unit": "h"}]}]}
